In general, pKa refers to the pH at which an ionisable group is half protonated.

Read-outs that look alike come from different tables or passages of the source.

For series [1] the following is noted: cited from earlier work; for ΔpH @ −20° C.: pH shift during freezing.
For series [2] the following is noted: cited from earlier work.
Series [3] is described as follows: Solubility of taurolidine polymorphs in aqueous citric acid. It is filed as physicochemical. To be noted: in 26.1 mg/mL aqueous citric acid, at T=25° C. On the procedure: Taurolidine Polymorphs A and B synthesized according to the Present Synthesis may both be soluble in 26.1 mg/mL aqueous citric acid, at T=25° C.
Series [4] can be described thus: Long term stability tests of taurolidine solution with citric acid and sodium citrate. To be noted: citric acid and sodium citrate in combination; compared with taurolidine solution prepared with polyvinylpyrrolidone (PVP). It counts as physicochemical. From the text:
The composition employed in the practice of the present invention preferably also contains a pharmacologically acceptable carrier solution, such as, water for injection.

For the compound `N[C@@H](Cc1c[nH]cn1)C(=O)O` [Histidine], in series [1], the “pH @ 25° C.” value was 5.4 and the “ΔpH @ −20° C.” value was “+0.8”.

With `NC(CO)(CO)CO` [Tromethamine], in series [1], the “pH @ 25° C.” value is 7.2 and the “ΔpH @ −20° C.” value was “+2.1”. Turning to `O=C(O)CC(O)C(=O)O` (stereo not drawn) [Malic acid], in series [1], the “pH @ 25° C.” value is on record as 5.0 and the “ΔpH @ −20° C.” value is given as −0.3. Also, the pKa in series [2] (second pKa value) is 3.4, 5.1. As for `O=S1(=O)CCN(CN2CCS(=O)(=O)NC2)CN1` [Polymorph A, taurolidine], the solubility result in series [3] is recorded as “soluble”. In the case of `O=S1(=O)CCN(CN2CCS(=O)(=O)NC2)CN1` [taurolidine], in series [4], the “stability and solubility of taurolidine in solution” value was “increases the stability and solubility”.

As to `CC(=O)O` [Acetic acid], in series [1], the “pH @ 25° C.” value is 5.6 and the “ΔpH @ −20° C.” value was “+0.5”. As to `N[C@@H](CCC(=O)O)C(=O)O` [Glutamic acid], the figures for the pKa in series [2] (second pKa value) and in series [2] (third pKa value printed in the cell) were 4.1 and 9.5, respectively. For `O=C(O)CC(O)(CC(=O)O)C(=O)O` [Citric acid], in series [1], the “pH @ 25° C.” value is given as 6.2 and the “ΔpH @ −20° C.” value is −0.2.
